Measurements: patent publication US20240208961A1, “EIF4E INHIBITORS AND USES THEREOF” (PIC Therapeutics, Inc., priority 2022, published 2024)
Where “and” joins values, the source holds several entries; their conditions need not be identical. Equal entries are not always repeated. Where two headings read alike, the source gives them in different places.

Assays:
[1] = test system: MM.1S; test: Cell viability assay, suspension cell line, 5 day Alamar Blue (Example 8): MM.1S; format: cell-based; settings: Homo sapiens, MM1.S, 120 h, Multiple Myeloma (Steroid Sensitive) Cancer Cell
Method: (§1) Cell viability assays were performed on certain compounds of the disclosure, according to the following procedure.
(§2) Cell line specific media conditions used:
The procedure for suspension cell line compound screening was as follows:
Day 1: Cell Seeding and Compound Dosing
(§3) • Cells were seeded 2×10^5 in 96-well cell culture treated tissue culture plates: 87.5 μL/well; MM.1 S, MM,1R, NCIH510A. • 5-fold serial dilution (8 point) of each compound in DMSO 0-25 mM in compound storage plates was prepared (stored at −80° C. if not to be used immediately). • Cells were rinsed with 1% FBS Media (appropriate to cell line as described above) and replaced with 87.5 μL media prior to dosing. • DMSO compound dilution series was diluted in 1% FBS media (appropriate to cell line as described above)—2 μL in 248 μL to give an 8× final concentration. • Cells were dosed 12.5 μL/well in triplicate to give final dose curved on cells 0-25 μM. • Media blank 100 μL/well×8 was set up. • All plates were incubated at 37° C.
Day 6: 5 Day Viability Assay
(§4) • Alamar Blue viability reagent was added (10 μL per well) and incubated for 3 hours at 37° C. prior to fluorescence detection (Ex560 nm/Em590 nm) on a Varioskan Lux multimode plate reader.
(§5) Results from cell viability assays are summarized in Table 23, wherein A represents IC50≤1 μM; B represents 1 μM<IC50≤8 μM; and C represents IC50>8 μM. Blank cells indicate that the compound was not tested in a particular assay.

[2] = test system: LoVo; test: Cell viability assay, adherent cell line, 5 day Alamar Blue (Example 8): LoVo; format: cell-based; settings: Homo sapiens, 120 h, Colorectal Cancer Cell Viability
Method: as §1, §2
The procedure for adherent cell line compound screening was as follows:
• Cells were seeded in 96-well cell culture treated tissue culture plates: ZR-75-1, NIHOVCAR3, T47D, and LOVO cells 4000 cells/well; and HPAFII 3000 cell/well
Day 3: Compound Dilution and Dosing
as §3, with “•” for “• Cells were seeded 2×10^5 in 96-well cell culture treated tissue culture plates: 87.5 μL/well; MM.1 S, MM,1R, NCIH510A. •”, “dosing. HPAFII was screened in normal 10% FBS Media.” for “dosing.”
Day 8: 5 Day Viability Assay
as §4, §5

[3] = Pharmacokinetic studies of certain compounds in female Balb/c mice (Example 5); format: in vivo
Method: Pharmacokinetic studies were performed using Balb/c mice, 15-20 g, 6-9 weeks, female, N=9, purchased from Jihui Laboratory Animal Co. LTD. For compound I-29, Balb/c mice, 19-21 g, 9-11 weeks, female, N=9, were used. The mice were fasted overnight and fed at 4 h post dosing.
Animals were dosed via oral gavage (PO) or tail vein injection (IV) with compound. Sampling occurred at 0.083, 0.25, 0.5, 1, 2, 4, 8, and 24 h post dose (8 time points). The animals were restrained manually at the designated time points. Approx. […] of blood was taken from the animals via facial vein for semi-serial bleeding into tubes with K2EDTA. Blood samples were put on ice and centrifuged at 4° C. (2000 g, 5 min) to obtain plasma within 15 min after sample collection. Plasma samples were stored in dry ice temporarily and at approximately −70° C. until analysis.
For oral gavage, the compound was dosed as a suspension in 1% sodium carboxymethyl cellulose (CMC) and 0.2% Tween 80 in water. For 23.8 mg/kg and 30 mg/kg doses, 3 mg/mL was used; for 50 mg/kg doses, 5 mg/mL was used; and for 100 mg/kg doses, 10 mg/mL was used.
For IV administration, the compound was dosed as a solution in 5% DMSO, 5% Solutol HS15 and 90% saline. For 1 mg/kg and 1.48 mg/kg doses, 0.2 mg/mL was used.
Plasma samples were analyzed using LC-MS using a calibration curve of known concentrations.
The results of these studies are summarized in Tables 11-21 below and in FIGS. 2-8. […] BQL=below quantifiable limit for compound in female Balb/c mouse plasma samples. NA=not available. PK parameters were estimated by non-compartmental model using WinNonlin 8.2. If the adjusted rsq (linear regression coefficient of the concentration value on the terminal phase) was less than 0.9, T1/2 might not have been accurately estimated. F value was determined by the following equation: • If AUClast/AUCINF>80%:
F=(AUCINF-EX×DOSEIV)/(AUCINF-IV×DOSEEX)[…] • If AUClast/AUCINF<80% or AUCINF not available:
F=(AUClast-EX×DOSEIV)/(AUClast-IV×DOSEEX)*1000

[4] = I-8 IV 1 mg/kg, 8 hr, BQL = below quantifiable limit of 3.00 ng/mL
[5] = I-8 IV 1 mg/kg, 24 hr, BQL = below quantifiable limit of 3.00 ng/mL

In the case of `CC(C)Cc1sc(Nc2ncc(-c3cccs3)cc2C(=O)O)nc1C1=CCCC1` [Compound I-8], the IC50 [1] is reported as no more than 1000 nM, the IC50 [2] is reported as no more than 1000 nM and the “Plasma concentration Individual” value ([3]; I-8 IV 1 mg/kg, 0.083 hr, 1 mg/kg) is reported as 2020 ng/mL and 1630 ng/mL. The “Plasma concentration Individual” value ([3]; I-8 IV 1 mg/kg, 0.25 hr, 1 mg/kg) was 632 ng/mL and 700 ng/mL, the “Plasma concentration Individual” value ([3]; I-8 IV 1 mg/kg, 0.5 hr, 1 mg/kg) was 309 ng/mL and 296 ng/mL and the “Plasma concentration Individual” value ([3]; I-8 IV 1 mg/kg, 1 hr, 1 mg/kg) was 66.5 ng/mL and 97.1 ng/mL. The “Plasma concentration Individual” value ([3]; I-8 IV 1 mg/kg, 2 hr, 1 mg/kg) was 25.8 ng/mL and 16.3 ng/mL, the “Plasma concentration Individual” value ([3]; I-8 IV 1 mg/kg, 4 hr, 1 mg/kg) was 7.83 ng/mL and 8.03 ng/mL and the “Plasma concentration Individual” value [3, 4] was “BQL”. For the same compound, the “Plasma concentration Mean” value [3, 4] was “BQL”, the “Plasma concentration Individual” value [3, 5] was “BQL” and the “Plasma concentration Mean” value [3, 5] was “BQL”. The F ([3]; I-8 PO 50 mg/kg vs IV 1 mg/kg) was 27.8%, the “Plasma concentration Individual” value ([3]; I-8 PO 50 mg/kg, 0.083 hr, 50 mg/kg) was 482 ng/mL and 270 ng/mL and the “Plasma concentration Individual” value ([3]; I-8 PO 50 mg/kg, 0.25 hr, 50 mg/kg) was 1250 ng/mL and 2030 ng/mL. The “Plasma concentration Individual” value ([3]; I-8 PO 50 mg/kg, 0.5 hr, 50 mg/kg) was 1900 ng/mL and 3970 ng/mL and 4110 ng/mL, the “Plasma concentration Individual” value ([3]; I-8 PO 50 mg/kg, 1 hr, 50 mg/kg) was 3600 ng/mL and 2260 ng/mL and the “Plasma concentration Individual” value ([3]; I-8 PO 50 mg/kg, 2 hr, 50 mg/kg) was 2510 ng/mL and 1700 ng/mL. For the same compound, the “Plasma concentration Individual” value ([3]; I-8 PO 50 mg/kg, 4 hr, 50 mg/kg) was 536 ng/mL and 958 ng/mL, the “Plasma concentration Individual” value ([3]; I-8 PO 50 mg/kg, 8 hr, 50 mg/kg) was 127 ng/mL and 134 ng/mL and the “Plasma concentration Individual” value ([3]; I-8 PO 50 mg/kg, 24 hr, 50 mg/kg) was 5.77 ng/mL and 14.0 ng/mL and 3.49 ng/mL. It also gave a concentration at 0.083 hr ([3]; female, Balb/c, mouse, plasma, iv, 1 mg/kg, I-8 IV 1 mg/kg, 0.083 hr, read-out: Plasma concentration Individual) of 1780 ng/mL, a concentration at 0.083 hr ([3]; female, Balb/c, mouse, plasma, iv, 1 mg/kg, I-8 IV 1 mg/kg, 0.083 hr, read-out: Plasma concentration Mean) of 1810 ng/mL and a concentration at 0.25 hr ([3]; female, Balb/c, mouse, plasma, iv, 1 mg/kg, I-8 IV 1 mg/kg, 0.25 hr, read-out: Plasma concentration Individual) of 847 ng/mL. The concentration at 0.25 hr ([3]; female, Balb/c, mouse, plasma, iv, 1 mg/kg, I-8 IV 1 mg/kg, 0.25 hr, read-out: Plasma concentration Mean) was 726 ng/mL, the concentration at 0.5 hr ([3]; female, Balb/c, mouse, plasma, iv, 1 mg/kg, I-8 IV 1 mg/kg, 0.5 hr, read-out: Plasma concentration Individual) was 232 ng/mL and the concentration at 0.5 hr ([3]; female, Balb/c, mouse, plasma, iv, 1 mg/kg, I-8 IV 1 mg/kg, 0.5 hr, read-out: Plasma concentration Mean) was 279 ng/mL. It also gave a concentration at 1 hr ([3]; female, Balb/c, mouse, plasma, iv, 1 mg/kg, I-8 IV 1 mg/kg, 1 hr, read-out: Plasma concentration Individual) of 85.2 ng/mL, a concentration at 1 hr ([3]; female, Balb/c, mouse, plasma, iv, 1 mg/kg, I-8 IV 1 mg/kg, 1 hr, read-out: Plasma concentration Mean) of 82.9 ng/mL and a concentration at 2 hr ([3]; female, Balb/c, mouse, plasma, iv, 1 mg/kg, I-8 IV 1 mg/kg, 2 hr, read-out: Plasma concentration Individual) of 24.8 ng/mL. It also gave a concentration at 2 hr ([3]; female, Balb/c, mouse, plasma, iv, 1 mg/kg, I-8 IV 1 mg/kg, 2 hr, read-out: Plasma concentration Mean) of 22.3 ng/mL, a concentration at 4 hr ([3]; female, Balb/c, mouse, plasma, iv, 1 mg/kg, I-8 IV 1 mg/kg, 4 hr, read-out: Plasma concentration Individual) of 10 ng/mL and a concentration at 4 hr ([3]; female, Balb/c, mouse, plasma, iv, 1 mg/kg, I-8 IV 1 mg/kg, 4 hr, read-out: Plasma concentration Mean) of 8.62 ng/mL. For the same compound, the concentration at 0.083 h ([3]; female, Balb/c, mouse, plasma, po, 50 mg/kg, I-8 PO 50 mg/kg, 0.083 hr, read-out: Plasma concentration Individual) was 247 ng/mL, the concentration at 0.083 h ([3]; female, Balb/c, mouse, plasma, po, 50 mg/kg, I-8 PO 50 mg/kg, 0.083 hr, read-out: Plasma concentration Mean) was 333 ng/mL and the concentration at 0.25 h ([3]; female, Balb/c, mouse, plasma, po, 50 mg/kg, I-8 PO 50 mg/kg, 0.25 hr, read-out: Plasma concentration Individual) was 1220 ng/mL. The concentration at 0.25 h ([3]; female, Balb/c, mouse, plasma, po, 50 mg/kg, I-8 PO 50 mg/kg, 0.25 hr, read-out: Plasma concentration Mean) was 1500 ng/mL, the concentration at 0.5 hr ([3]; female, Balb/c, mouse, plasma, po, 50 mg/kg, I-8 PO 50 mg/kg, 0.5 hr, read-out: Plasma concentration Mean) was 3330 ng/mL and the concentration at 1 h ([3]; female, Balb/c, mouse, plasma, po, 50 mg/kg, I-8 PO 50 mg/kg, 1 hr, read-out: Plasma concentration Individual) was 1810 ng/mL. For the same compound, the concentration at 1 h ([3]; female, Balb/c, mouse, plasma, po, 50 mg/kg, I-8 PO 50 mg/kg, 1 hr, read-out: Plasma concentration Mean) was 2560 ng/mL, the concentration at 2 h ([3]; female, Balb/c, mouse, plasma, po, 50 mg/kg, I-8 PO 50 mg/kg, 2 hr, read-out: Plasma concentration Individual) was 1670 ng/mL and the concentration at 2 h ([3]; female, Balb/c, mouse, plasma, po, 50 mg/kg, I-8 PO 50 mg/kg, 2 hr, read-out: Plasma concentration Mean) was 1960 ng/mL. For the same compound, the concentration at 4 h ([3]; female, Balb/c, mouse, plasma, po, 50 mg/kg, I-8 PO 50 mg/kg, 4 hr, read-out: Plasma concentration Individual) was 530 ng/mL, the concentration at 4 h ([3]; female, Balb/c, mouse, plasma, po, 50 mg/kg, I-8 PO 50 mg/kg, 4 hr, read-out: Plasma concentration Mean) was 675 ng/mL and the concentration at 8 h ([3]; female, Balb/c, mouse, plasma, po, 50 mg/kg, I-8 PO 50 mg/kg, 8 hr, read-out: Plasma concentration Individual) was 155 ng/mL. It also gave a concentration at 8 h ([3]; female, Balb/c, mouse, plasma, po, 50 mg/kg, I-8 PO 50 mg/kg, 8 hr, read-out: Plasma concentration Mean) of 139 ng/mL, a concentration at 24 h ([3]; female, Balb/c, mouse, plasma, po, 50 mg/kg, I-8 PO 50 mg/kg, 24 hr, read-out: Plasma concentration Mean) of 7.75 ng/mL and an AUC(0-inf) ([3]; mouse, plasma, I-8 IV 1 mg/kg) of 717 ng·h/mL. The AUC(0-t) ([3]; mouse, plasma, I-8 IV 1 mg/kg) was 705 ng·h/mL, the C0 ([3]; mouse, plasma, I-8 IV 1 mg/kg) was 2850 ng/mL and the MRT inf ([3]; mouse, plasma, I-8 IV 1 mg/kg) was 28.3 min. The MRT last ([3]; mouse, plasma, I-8 IV 1 mg/kg) was 23.2 min, the clearance ([3]; mouse, plasma, I-8 IV 1 mg/kg) was 23.2 mL/min/kg and the half-life ([3]; mouse, plasma, I-8 IV 1 mg/kg) was 58.2 min. The Vd ([3]; mouse, plasma, I-8 IV 1 mg/kg, read-out: Vss) was 0.657 L/kg, the AUC(0-inf) ([3]; mouse, plasma, I-8 PO 50 mg/kg) was 9970 ng·h/mL and the AUC(0-t) ([3]; mouse, plasma, I-8 PO 50 mg/kg) was 9930 ng·h/mL. It also gave a Cmax ([3]; mouse, plasma, I-8 PO 50 mg/kg) of 3330 ng/mL, an MRT inf ([3]; mouse, plasma, I-8 PO 50 mg/kg) of 182 min and an MRT last ([3]; mouse, plasma, I-8 PO 50 mg/kg) of 176 min. For the same compound, the Tmax ([3]; mouse, plasma, I-8 PO 50 mg/kg) was 30 min and the half-life ([3]; mouse, plasma, I-8 PO 50 mg/kg) was 197 min.
